Results on 3 molecules are retold here after US20050107293A1, “Protein modification and maintenance molecules” (priority 2001, published 2005).

For test [1] the following is noted: greater than progesterone; cited from earlier work.
A further test has as its system liver C3A cells. As to the kind of experiment: Microarray analysis of SEQ ID NO:49 expression in steroid-treated C3A cells. It is filed as cell-based, human. Conditions: for differential expression of SEQ ID NO:49: liver C3A cells treated with one steroid, microarray. From the text: The human C3A cell line is a clonal derivative of HepG2/C3 and has been established as an in vitro model of the mature human liver (Mickelson et al. (1995) Hepatology 22:866-875; Nagendra et al. (1997) Am J Physiol 272:G408-G416). […] These experiments indicate that SEQ ID NO:49 is useful in diagnostic assays for liver diseases and as a potential biological marker and therapeutic agent in the treatment of liver diseases and disorders.

For the next test, the system named is C3A cells. As to the kind of experiment: Microarray analysis of SEQ ID NO:59 expression in C3A cells treated with progesterone or budenoside. The note with it: early confluent C3A cells, 10 μM, at each time point (1, 3, and 6 hours), versus untreated C3A cells. It is filed as cell-based, human. From the text:
The human C3A cell line is a clonal derivative of HepG2/C3 (hepatoma cell line, isolated from a person with liver tumor), which was selected for strong contact inhibition of growth. The use of a clonal population enhances the reproducibility of the cells. C3A cells have many characteristics of primary human hepatocytes in culture: i) expression of insulin receptor and insulin-like growth factor II receptor; ii) secretion of a high ratio of serum albumin compared with α-fetoprotein iii) conversion of ammonia to urea and glutamine; iv) metabolism of aromatic amino acids; and v) proliferation in glucose-free and insulin-free medium. The C3A cell line is now well established as an in vitro model of the mature human liver (Mickelson et al. (1995) Hepatology 22:866-875; Nagendra et al. (1997) Am J Physiol 272:G408-G416). Early Confluent C3A cells were treated with progesterone or budenoside at 1, 10, and 100 μM for 1, 3, and 6 hours. The treated cells were compared to untreated early confluent C3A cells. […] Therefore, SEQ ID NO:59 may be useful in monitoring of, and diagnostic assays for steroid hormone-induced responses.

Turning to “6α-methyl-17-hydroxyprogesterone [Medroxyprogesterone]”, the “pharmacological activity relative to progesterone” value in test [1] is “about 15 times”.
Regarding `C[C@H]1C[C@H]2[C@@H]3CCC4=CC(=O)C=C[C@]4(C)[C@@]3(Cl)[C@@H](O)C[C@]2(C)[C@@]1(O)C(=O)CO` [beclomethasone], in the test with liver C3A cells (early confluent C3A cells treated for 1, 3, or 6 hours, at a minimum of two out of the three time points), the “decrease in expression of SEQ ID NO:5” value is given as “at least a two-fold decrease”. Further, the “differential expression of SEQ ID NO:49” value in the test on liver C3A cells is recorded as “differential expression”.
For `CC(=O)[C@H]1CC[C@H]2[C@@H]3CCC4=CC(=O)CC[C@]4(C)[C@H]3CC[C@]12C` [progesterone], the “differential expression of SEQ ID NO:49” value with liver C3A cells is “differential expression”. For the same molecule, the “expression of SEQ ID NO:59” value in the test with C3A cells is reported as “decreased by at least two-fold”.
